In US20050009862A1, “Method for promoting uninterrupted sleep by administration of trospium chloride” (priority 2003, published 2005):

Key:
Type in all cases: in vivo, human
[1] = tested on: People complaining of frequent wakefulness throughout the night due to repeated urges to urinate; experiment: Example 3: single dose before sleeping in people with frequent wakefulness at night; settings: 20 mg given 1.0 h before sleeping
Experimental: People complaining of frequent wakefulness throughout the night due to repeated urges to urinate are given 20 mg of trospium chloride 1.0 h before sleeping.

[2] = tested on: patients with overactive bladder (OAB) associated with predominant urge incontinence; experiment: Same Phase III study, safety (adverse events, clinical laboratory tests, vital signs, ECG)
Experimental: A multicenter, double-blind, placebo-controlled study of 20 mg, twice-daily trospium chloride for 12 weeks followed by a 9-month, open-label treatment phase in patients with overactive bladder.
Multicenter, parallel, randomized, double-blind, placebo-controlled trial of patients with overactive bladder (OAB) associated with predominant urge incontinence. Patients who were currently receiving OAB drug therapy were to begin treatment after a 3-week washout period that included the 7-day patient urinary diary collection. Patients who were not currently receiving OAB drug therapy (i.e., naive patients) could begin treatment with study medication following their 7-day patient urinary diary collection and continued for a total double-blind treatment duration of 12 weeks.
Patients were randomized on a 1:1 basis to receive either placebo or trospium chloride 20 mg twice daily during the double-blind treatment segment of the study. The randomization schedule for patients was stratified by the mean baseline number of micturitions (i.e., toilet voids) per 24 hours (collected via the patient urinary diary over 7 days); specifically, using the stratified categories of 10 to 15, 16 to 20, and ≧21 mean micturitions per 24 hours. Patients were periodically evaluated during the 12-week treatment segment and were to return on Day 84 for the Week 12 assessments.
Adverse events (AEs), clinical laboratory tests, vital signs, and 12-lead electrocardiograms (ECGs).
The Fisher's Exact test was used to analyze adverse events. Other categorical data were analyzed using the Cochran-Mantel-Haenszel (CMH) procedure with center as the stratification variable. For all continuous data analyses, an analysis of variance (ANOVA) model with center and treatment was used.

[3] = tested on: patients with overactive bladder (OAB) associated with predominant urge incontinence; experiment: Phase III multicenter, double-blind, placebo-controlled 12-week study of trospium chloride 20 mg twice daily (#IP631-003), efficacy from patient urinary diary
Text: A multi-center, parallel, randomized, double-blind, placebo controlled study (#IP631-003) was based on data collected as a result of administering the IUSS during a 12-week^1-clinical trial of patients with overactive bladder (OAB) associated with predominant urge incontinence—for trospium chloride in the United States. For full details on the clinical study ethics, administration, objectives and design, selection of study population, treatments, efficacy and safety variables and statistical methodology please refer to the clinical study protocol #IP631-003 and the ‘Final Report for the Double-Blind Phase’ prepared by Quintiles Inc.
The IUSS (Appendix A) asks patients about their ‘degree of urgency’ of their toilet voids (as meant to describe the urge to urinate). Patients are asked to rate the degree of urgency they felt before reaching the toilet for a toilet void (defined in the study as urination in the toilet). The instructions state that “Sometimes you may feel a very strong urge to urinate, and at other times, you may feel a milder urge prior to the onset of a toilet void. Rate this feeling by circling 0, 1, 2 or 3.” The instructions specify the following four response options: • 0: None—no urgency; • 1: Mild—awareness of urgency, but is easily tolerated and you can continue with your usual activity or tasks; • 2: Moderate—enough urgency discomfort that it interferes with or shortens your usual activity or tasks; and • 3: Severe—extreme urgency discomfort that abruptly stops all activity or tasks.
This single-item Urgency Severity Scale was contained within a ‘Patient Urinary Diary’, which was completed by all patients during four discrete one-week periods in the course of the 12-week double-blind trial (baseline and study treatment weeks 1, 4 and 12). During each of the one-week data collection periods, patients completed the diary every day for a total of seven days. […] In the diary, an urge leak was defined as a leakage due to a very strong need or desire to urinate. A stress leak was defined as being a result of coughing, sneezing, standing, laughing, exercise, or other physical activity/movement exerting pressure on the bladder. In addition, during the last two days of the 7-day diary collection period (days 6 and 7), patients collected and measured all urine volume for each and every toilet void and recorded this within the diary.
The study population for the clinical trial was 523 patients who received at least one dose of the study medication. Patients who entered the trial were required to have overactive bladder, defined as: • Urinary frequency of ≧70 toilet voids per 7 days (i.e. ≧10 toilet voids per day) as recorded in a patient urinary diary during a “washout” period; • Symptoms of urgency (i.e. sudden desire to toilet void); • Pure urge or mixed urinary incontinence with predominant urge incontinence.
Trospium chloride is an anticholinergic agent with predominantly peripheral antimuscarinic activity. Its mechanism enables the detrusor to relax, inhibiting evacuation of the bladder. Patients were randomized on a 1:1 basis to receive either placebo or trospium chloride. Patients receiving trospium chloride took one 20-mg tablet twice daily. Those receiving placebo took one placebo tablet twice daily. The identity of the study medication was blinded.
Patients completed a patient diary on a daily basis during four one-week data collection windows: baseline, week 1, week 4 and week 12. The diary collected the following patient-reported outcome data: • IUSS; • Number of toilet voids; • Number of urge incontinence episodes, and separately, stress incontinence episodes; • Volume voided (mL), collected on the last 2 of 7 days of the 7 day diary.
A multicenter, double-blind, placebo-controlled study of 20 mg, twice-daily trospium chloride for 12 weeks followed by a 9-month, open-label treatment phase in patients with overactive bladder. […]

[4] = tested on: Patients with overactive bladder associated with predominant urge incontinence and complaining of frequent wakefulness throughout the night; experiment: Example 2: single dose before sleeping in overactive bladder patients with frequent wakefulness at night; settings: 20 mg given 0.5 h before sleeping
Experimental: Patients with overactive bladder associated with predominant urge incontinence and complaining of frequent wakefulness throughout the night due to repeated urges to urinate are given 20 mg of trospium chloride 0.5 h before sleeping.

## O=C(O[C@H]1C[C@H]2CC[C@@H](C1)[N+]21CCCC1)C(O)(c1ccccc1)c1ccccc1 [Trospium, 3-alpha-benziloyloxynortropane-8-spiro-1′-pyrrolidinium chloride]
[1]
  Sleep during the normal sleep period: uninterrupted sleep throughout their normal sleep periods
[2]; 20 mg twice daily, 12 weeks
  Overall safety and tolerability: safe and generally well tolerated
[2]; 1 patient in each treatment group, no clinical signs, resolved at endpoint
  Patients with QTcF intervals >500 msec that had increased by >60 msec from baseline: 1 patient
[2]; 12-week double-blind phase, 20 mg twice daily, placebo 5.7%
  Patients in whom study medication was permanently discontinued due to TEAEs (percent): 8.8%
[2]; 12-week double-blind phase, 20 mg twice daily, placebo 15 patients
  Patients in whom study medication was permanently discontinued due to TEAEs (number): 23 patients
[2]; person, hemorrhagic stroke on Day 57, assessed as remotely related to study medication
  Patients who experienced an adverse event leading to death: 1 patient
[2]; trospium group
  Most common TEAEs that led to discontinuation of study medication: dry mouth, constipation, abdominal pain NOS, and urinary retention
[3]; Week 12, 20 mg oral tablet twice daily, N = 253, ITT:LOCF, placebo −1.29, P <0.0001
  Mean change from baseline: Number of toilet voids/24 hours: −2.37
[3]; Week 12, 20 mg twice daily, N = 248, ITT:LOCF, placebo 7.72, P <0.0001
  Mean change from baseline: Volume voided (mL) per toilet void/24 hours: 32.14 mL
[3]; Week 12, 20 mg twice daily, N = 253, ITT:LOCF, placebo −0.04, P 0.0001
  Mean change from baseline: Urgency severity score associated with toilet voids (IUSS, 0-3): −0.22
[3]; Week 12, 20 mg twice daily, N = 253, ITT:LOCF, placebo −0.29, P 0.0255
  Mean change from baseline: Number of nocturnal toilet voids/24 hours: −0.47
[3]; Week 12, 20 mg twice daily, N = 253, ITT:LOCF, placebo −1.98, P 0.0118 (ranked ANOVA)
  Mean change from baseline: Number of urge incontinence episodes/24 hours: −2.20
[3]; at Weeks 1, 4, and 12
  Change in average urgency severity per 24 hours compared with placebo: significant decrease
  Change in average volume voided compared with placebo: statistically significant increase
[3]; at Weeks 1, 4, and 12, improvement = decrease
  Change in average number of toilet voids per 24 hours compared with placebo: statistically significant (p≦0.05) improvement
[3]; at Weeks 4 and 12, improvement = decrease
  Change in average number of urge incontinence episodes per 24 hours compared with placebo: statistically significant (p≦0.05) improvement
[3]; consistently significant effects by Day 7
  Onset of action during Week 1 for effect on toilet voids, urge incontinence episodes, and total micturitions per 24 hours: superior when compared with placebo
[3]; over the 12-week trial, baseline mean 11.29, placebo reduction 1.08, p<0.01
  Average reduction in mean number of urgency episodes (IUSS severity >0): 2.30 urgency episodes
[4]
  Sleep during the normal sleep period: uninterrupted sleep throughout their normal sleep periods
